Experimental data: patent US20240050463A1, “THERAPEUTIC COMPOSITIONS AND METHODS FOR TREATING HEPATITIS B” (ARBUTUS BIOPHARMA CORPORATION, priority 2016, published 2024)

Tests used:
[1] = system: HBsAg, D type HBV in primary human hepatocytes (PHH); assay: microbe, parasite or virus in culture; format: cell-based; details: for AVERAGE % INHIBITION, HBsAg: COMPOUND 3 0.00 nM; for AVERAGE % INHIBITION: HBsAg, COMPOUND 22 0.00 nM
Procedure: (§1) The mouse liver perfusion was applied to isolate PHHs. The isolated hepatocytes were further purified by Percoll. The cells were resuspended with culture media and seeded into the 96-well plates (6×10^4 cell/well) or 48-well plates (1.2×10^5 cell/well). The PHHs were infected with a D type HBV one day post seeding (day 1).
(§2) On day 2, the test compounds were diluted and added into the cell culture plates. The culture media containing the compounds were refreshed every other day. The cell culture supernatants were collected on day 8 for the HBV DNA and antigen determinations.
(§3) The compounds were tested at 7 concentrations, 3-fold dilution, in triplicate.
(§4) Two compounds were tested at 5×5 matrix, in triplicate plates.
(§5) HBsAg/HBeAg in the culture supernatants harvested on days 8 were measured by the HBsAg/HBeAg ELISA kit (Autobio) according to the manual. The samples were diluted with PBS to get the signal in the range of the standard curve. The inhibition rates were calculated with the formula below. The combination effect was analyzed by the MacSynergy software.
% Inh. HBsAg=[1−HBsAg quantity of sample/HBV quantity of DMSO control]×100.

[2] = system: HBeAg, D type HBV in primary human hepatocytes (PHH); assay: microbe, parasite or virus in culture; format: cell-based
Procedure: as §1, §2, §3, §4, §5
% Inh. HBeAg=[1−HBeAg quantity of sample/HBV quantity of DMSO control]×100.

[3] = system: D type HBV in primary human hepatocytes (PHH); assay: HBV DNA in culture supernatants of HBV-infected primary human hepatocytes (qPCR), MacSynergy; format: cell-based; details: for AVERAGE % INHIBITION, HBV DNA: COMPOUND 3 0.00 nM; for AVERAGE % INHIBITION: HBV DNA, COMPOUND 22 0.00 nM
Procedure: as §1, §2, §3, §4
DNA in the culture supernatants harvested on days 8 were isolated with QIAamp 96 DNA Blood Kit (Qiagen-51161). For each sample, 100 μl of the culture supernatants was used to extract DNA. The DNA was eluted with 100 μl, 150 μl or 180 μl of AE. HBV DNA in the culture supernatants was quantified by qPCR. The combination effect was analyzed by the MacSynergy software. The primers are described below.

[4] = system: HBV rcDNA in HepDE19 cells; assay: Inhibition of rcDNA in HepDE19 cells (bDNA assay), checkerboard, MacSynergy II; format: cell-based, HBV (human hepatoma cell line); details: Hepatitis B virus, HepDE19, read-out: ADDITIVE INHIBITION
Procedure: In vitro combination studies were conducted using the method of Prichard and Shipman (Prichard M N, and Shipman C Jr., Antiviral Research, 1990, 14(4-5), 181-205; and Prichard M N, et. al., MacSynergy II). HepDE19 cell culture system is a HepG2 (human hepatocarcinoma) derived cell line that supports HBV DNA replication and cccDNA formation in a tetracycline (Tet)-regulated manner and produces HBV rcDNA and a detectable reporter molecule dependent on the production and maintenance of cccDNA (Guo et al 2007. J. Virol 81:12472-12484). HepDE19 (50,000 cells/well) were plated in 96 well collagen-coated tissue-culture treated microtiter plates in DMEM/F12 medium supplemented with 10% fetal bovine serum, 1% penicillin-streptomycin and 1 μg/ml tetracycline and incubated in a humidified incubator at 37° C. and 5% CO2 overnight. Next day, the cells were switched to fresh medium without tetracycline and incubated for 4 hrs at 37° C. and 5% CO2. […] The two inhibitors were tested both singly as well as in combinations in a checkerboard fashion such that each concentration of inhibitor A was combined with each concentration of inhibitor B to determine their combination effects on inhibition of rcDNA production. Following a 7 day-incubation of cells with compound combinations, the level of rcDNA present in the inhibitor-treated wells was measured using a Quantigene 2.0 bDNA assay kit (Affymetrix, Santa Clara, CA) with HBV specific custom probe set and manufacturers instructions. […] The RLU data from the single compound treated cells were analyzed using XL-Fit module in Microsoft Excel to determine EC50 values using a 4-parameter curve fitting algorithm. Concurrently, the effect of compounds on cell viability was assessed using replicate plates, plated at a density of 5,000 cells/well and incubated for 4 days, to determine the ATP content as a measure of cell viability using the cell-titer glo reagent (CTG; Promega Corporation, Madison, WI) as per manufacturer's instructions.
In vitro combination studies were conducted using the method of Prichard and Shipman (Prichard M N, Shipman C, Jr., Antiviral Res, 14, 181-205 (1990)). The HepDE19 cell line was developed as described in Guo et al. (Guo et al., J Virol, 81, 12472-12484 (2007)). It is a human hepatoma cell line stably transfected with the HBV genome, and which can express HBV pregenomic RNA and support HBV rcDNA (relaxed circular DNA) synthesis in a tetracycline-regulated manner. HepDE19 cells were plated in 96 well tissue-culture treated microtiter plates in DMEM/F12 medium supplemented with 10% fetal bovine serum+1% penicillin-streptomycin without tetracycline and incubated in a humidified incubator at 37° C. and 5% CO2 overnight. […] The two inhibitors were tested both singly as well as in combinations in a checkerboard fashion such that each concentration of inhibitor A was combined with each concentration of inhibitor B to determine their combination effects on inhibition of rcDNA production. Following a 48 hour-incubation, the level of rcDNA present in the inhibitor-treated wells was measured using a bDNA assay (Affymetrix) with HBV specific custom probe set and manufacturers instructions. […] Concurrently, the effect of inhibitor combinations on cell viability was assessed using replicate plates that were used to determine the ATP content as a measure of cell viability using the Cell-TiterGlo reagent (Promega) as per manufacturer's instructions.
In vitro combination studies were conducted using the method of Prichard and Shipman (1990) (Prichard M N, Shipman C, Jr. 1990. A three-dimensional model to analyze drug-drug interactions. Antiviral Res 14:181-205 AND Prichard M N. 1992. MacSynergy II, University of Michigan).

hepatitis B virus (HBV) = assay: Serum HBsAg in mouse model of HBV (pAAV/HBV1.2 hydrodynamic injection), enzyme immunoassay; format: in vivo, C3H/HeN mice; details: HBV siRNA 1 mg/kg IV Days 0, 7, 14, poly(I:C) 20 μg HDI Day 0, mean ± SEM
Source text: A mouse model of hepatitis B virus (HBV) was used to assess the anti-HBV effects of an immune stimulant and HBV-targeting siRNAs, both as independent treatments and in combination with each other.
This plasmid carries a 1.2-fold overlength copy of a HBV genome and expresses HBV surface antigen (HBsAg) amongst other HBV products. Serum HBsAg expression in mice was monitored using an enzyme immunoassay. Animals were sorted (randomized) into groups based on serum HBsAg levels such that a) all animals were confirmed to express HBsAg and b) HBsAg group means were similar to each other prior to initiation of treatments.
Animals were treated with immune stimulant as follows: On Day 0, 20 micrograms of high molecular weight polyinosinic:poly cytidylic acid (poly(I:C)) was administered via HDI. Animals were treated with lipid nanoparticle (LNP)-encapsulated HBV-targeting siRNAs as follows: On each of Days 0, 7 & 14, an amount of test article equivalent to 1 mg/kg siRNA was administered intravenously. A negative control group was included as the HBsAg expression level is not completely stable in this mouse model of HBV; the absolute concentration of serum HBsAg generally declines over time in individual animals.
The effect of the treatments was determined by collecting a small amount of blood on Days 0 (pre-treatment), 3, 7, 14 & 21 and analyzing it for serum HBsAg content. Samples were diluted as appropriate to generate values within the assay range of quantitation where possible. Individual values falling below the lower limit of quantitation (LLOQ) were set as one-half the LLOQ.

[5] = Hepatitis B virus, Hepatocyte, read-out: AVERAGE % INHIBITION (HBV DNA)
[6] = Hepatitis B virus, Hepatocyte, read-out: AVERAGE % INHIBITION (HBsAg)
[7] = Hepatitis B virus, Hepatocyte, read-out: AVERAGE % INHIBITION (HBeAg)

CNC(=O)N[C@H]1CCOc2c(C(=O)Nc3ccc(F)c(F)c3)ccc(F)c21 [Compound 23]
EC50 ([1]; Hepatitis B virus, Hepatocyte, read-out: Inhibitor B EC50): 4.36 nM | EC50 ([2]; Hepatitis B virus, Hepatocyte, read-out: Inhibitor B EC50, HBeAg endpoint, determined in an earlier separate experiment): 4.53 nM

COCCCOc1cc2c(cc1OC)-c1cc(=O)c(C(=O)O)cn1C(C(C)C)C2 (stereo not shown) [Compound 25]
AVERAGE % INHIBITION, HBV DNA ([3]; COMPOUND 25 0.12 nM): −20.98% | AVERAGE % INHIBITION, HBV DNA ([3]; COMPOUND 25 0.37 nM): −51.8% | AVERAGE % INHIBITION, HBV DNA ([3]; COMPOUND 25 3.33 nM): 15.24% | AVERAGE % INHIBITION, HBV DNA ([3]; COMPOUND 25 10.00 nM): 28% | AVERAGE % INHIBITION, HBV DNA ([3]; COMPOUND 25 […]): 5.69% | AVERAGE % INHIBITION ([3]; COMPOUND 25 0.12 nM): −42.82% | AVERAGE % INHIBITION ([3]; COMPOUND 25 0.37 nM): −46.48% | AVERAGE % INHIBITION ([3]; COMPOUND 25 3.33 nM): 16.41% | AVERAGE % INHIBITION ([3]; COMPOUND 25 10.00 nM): 37.39% | AVERAGE % INHIBITION ([3]; COMPOUND 25 […]): −19.21% | AVERAGE % INHIBITION, HBsAg ([1]; COMPOUND 25 0.37 nM): −5.09% | AVERAGE % INHIBITION, HBsAg ([1]; COMPOUND 25 […]): −3.18% | AVERAGE % INHIBITION ([1]; COMPOUND 25 0.37 nM): 12.93% | AVERAGE % INHIBITION ([1]; COMPOUND 25 […]): 26.4% | AVERAGE % INHIBITION, HBeAg ([2]; COMPOUND 25 […], COMPOUND 3 0.00 nM): 4.51% | AVERAGE % INHIBITION ([2]; HBeAg, COMPOUND 25 […], COMPOUND 22 0.00 nM): 14.98%

CC(C)OC(=O)[C@H](C)N[P@](=O)(CO[C@H](C)Cn1cnc2c(N)ncnc21)Oc1ccccc1 [TAF, tenofovir alafenamide]
inhibition at 0.0007813 µM [4]: -4.76% | inhibition at 0.0015625 µM [4]: 3.49% | inhibition at 0.00012 µM [3, 5]: -2.6% | inhibition at 0.00037 µM [3, 5]: -1.92% | inhibition at 0.00333 µM [3, 5]: 40.2% | inhibition at 0.01 µM [3, 5]: 50.2% | AVERAGE % INHIBITION, HBV DNA ([3]; TAF 0.05 nM): −8.77% | AVERAGE % INHIBITION, HBV DNA ([3]; TAF 0.41 nM): 28.78% | AVERAGE % INHIBITION, HBV DNA ([3]; TAF 1.23 nM): 63.39% | AVERAGE % INHIBITION, HBV DNA ([3]; TAF 3.70 nM): 78.31% | inhibition at 0.000123457 µM [1, 6]: 29.8% | inhibition at 0.00037037 µM [1, 6]: 10.8% | inhibition at 0.00111111 µM [1, 6]: 20.8% | inhibition at 0.00333333 µM [1, 6]: 9.06% | inhibition at 0.01 µM [1, 6]: 7.97% | inhibition at 50 pM [2, 7]: 1.17% | inhibition at 0.00014 µM [2, 7]: -2.78% | inhibition at 0.00041 µM [2, 7]: 1.76% | inhibition at 0.00123 µM [2, 7]: 9.91% | inhibition at 0.0037 µM [2, 7]: 11.9%

polyinosinic:poly cytidylic acid [Poly(I:C)]
Serum HBsAg as percentage of individual pre-treatment baseline (hepatitis B virus (HBV); Day 0 (pre-treatment)): 100 ± 0% | Serum HBsAg as percentage of individual pre-treatment baseline (hepatitis B virus (HBV); Day 3): 6.1 ± 1.1% | Serum HBsAg as percentage of individual pre-treatment baseline (hepatitis B virus (HBV); Day 7): 3.5 ± 1.1% | Serum HBsAg as percentage of individual pre-treatment baseline (hepatitis B virus (HBV); Day 14): 3.9 ± 1.4% | Serum HBsAg as percentage of individual pre-treatment baseline (hepatitis B virus (HBV); Day 21): 4.7 ± 2.3%
